Reference: patent US12558357B2, “Tetrahydroquinazoline derivatives as selective cytotoxic agents” (Merck Sharp & Dohme LLC, priority 2020, dated 2026)

tested on: PBMCs infected with VSV-G pseudotyped HIV virus (VSV-G/pNLG1-P2A-ΔEnv); assay: cells; type: cell-based, human; conditions: Homo sapiens, PBMC, read-out: EC50 (HIV-TACK cell kill activity)

SMILES	EC50 [nM]
Nc1nccn(Cc2cc3c(cc2Cl)[C@@](C#CC2CC2)(C(F)(F)F)NC(=O)N3)c1=O [Example 58, (S)-7-((3-amino-2-oxopyrazin-1(2H)-yl)methyl)-6-chloro-4-(cyclopropylethynyl)-4-(trifluoromethyl)-3,4-dihydroquinazolin-2(1H)-one]	41
Cc1cn(Cc2ccc3c(c2)NC(=O)N[C@]3(C#CC2CC2)C(F)(F)F)c(=O)c(N)n1 [Example 59, (S)-7-((3-amino-5-methyl-2-oxopyrazin-1(2H)-yl)methyl)-4-(cyclopropylethynyl)-4-(trifluoromethyl)-3,4-dihydroquinazolin-2(1H)-one]	78
Cc1nc(N)c(=O)n(Cc2ccc3c(c2)NC(=O)N[C@]3(C#CC2CC2)C(F)(F)F)c1C [Example 60, (S)-7-((3-amino-5,6-dimethyl-2-oxopyrazin-1(2H)-yl)methyl)-4-(cyclopropylethynyl)-4-(trifluoromethyl)-3,4-dihydroquinazolin-2(1H)-one]	156
COCc1cc(=O)n(Cc2cc3c(cc2Cl)[C@@](C#CC2CC2)(C(F)(F)F)NC(=O)N3)cn1 [Example 61, (S)-6-chloro-4-(cyclopropylethynyl)-7-((4-(methoxymethyl)-6-oxopyrimidin-1(6H)-yl)methyl)-4-(trifluoromethyl)-3,4-dihydroquinazolin-2(1H)-one]	38
O=C1Nc2cc(Cn3cnc(C(F)F)cc3=O)c(Cl)cc2[C@@](C#CC2CC2)(C(F)(F)F)N1 [Example 62, (S)-6-chloro-4-(cyclopropylethynyl)-7-((4-(difluoromethyl)-6-oxopyrimidin-1(6H)-yl)methyl)-4-(trifluoromethyl)-3,4-dihydroquinazolin-2(1H)-one]	41
O=C1Nc2cc(Cn3cnc(CO)cc3=O)ccc2[C@@](C#CC2CC2)(C(F)(F)F)N1 [Example 63, (S)-4-(cyclopropylethynyl)-7-((4-(hydroxymethyl)-6-oxopyrimidin-1(6H)-yl)methyl)-4-(trifluoromethyl)-3,4-dihydroquinazolin-2(1H)-one]	145
Cc1cc(=O)n(Cc2ccc3c(c2)NC(=O)N[C@]3(C#CC2CC2)C(C)(F)F)cn1 [Example 64, (S)-4-(cyclopropylethynyl)-4-(1,1-difluoroethyl)-7-((4-methyl-6-oxopyrimidin-1(6H)-yl)methyl)-3,4-dihydroquinazolin-2(1H)-one]	93
O=C1Nc2cc(Cn3cnc(CO)cc3=O)c(F)cc2[C@@](C#CC2CC2)(C(F)(F)F)N1 [Example 65, (S)-4-(cyclopropylethynyl)-6-fluoro-7-((4-(hydroxymethyl)-6-oxopyrimidin-1(6H)-yl)methyl)-4-(trifluoromethyl)-3,4-dihydroquinazolin-2(1H)-one]	45
O=C1Nc2cc(Cn3cncc(CO)c3=O)c(F)cc2[C@@](C#CC2CC2)(C(F)(F)F)N1 [Example 66, (S)-4-(cyclopropylethynyl)-6-fluoro-7-((5-(hydroxymethyl)-6-oxopyrimidin-1(6H)-yl)methyl)-4-(trifluoromethyl)-3,4-dihydroquinazolin-2(1H)-one]	188
CC(F)(F)[C@@]1(C#CC2CC2)NC(=O)Nc2cc(Cn3ccnc(N)c3=O)c(F)cc21 [Example 67, (S)-7-((3-amino-2-oxopyrazin-1(2H)-yl)methyl)-4-(cyclopropylethynyl)-4-(1,1-difluoroethyl)-6-fluoro-3,4-dihydroquinazolin-2(1H)-one]	12
Nc1nc(Cl)cn(Cc2ccc3c(c2)NC(=O)N[C@]3(C#CC2CC2)C(F)(F)F)c1=O [Example 68, (S)-7-((3-amino-5-chloro-2-oxopyrazin-1(2H)-yl)methyl)-4-(cyclopropylethynyl)-4-(trifluoromethyl)-3,4-dihydroquinazolin-2(1H)-one]	71
N#Cc1ncn(Cc2cc3c(cc2F)[C@@](C#CC2CC2)(C(F)(F)F)NC(=O)N3)c(=O)c1N [Example 69, (S)-5-amino-1-((4-(cyclopropylethynyl)-6-fluoro-2-oxo-4-(trifluoromethyl)-1,2,3,4-tetrahydroquinazolin-7-yl)methyl)-6-oxo-1,6-dihydropyrimidine-4-carbonitrile]	29
O=c1ccncn1Cc1ccc2c(c1)NC(=S)N[C@]2(C#CC1CC1)C(F)(F)F [Example 70, (S)-3-((4-(cyclopropylethynyl)-2-thioxo-4-(trifluoromethyl)-1,2,3,4-tetrahydroquinazolin-7-yl)methyl)pyrimidin-4(3H)-one]	93
Nc1nccn(Cc2ccc3c(c2)NC(=S)N[C@]3(C#CC2CC2)C(F)(F)F)c1=O [Example 71, (S)-3-amino-1-((4-(cyclopropylethynyl)-2-thioxo-4-(trifluoromethyl)-1,2,3,4-tetrahydroquinazolin-7-yl)methyl)pyrazin-2(1H)-one]	41
Nc1c(C(F)(F)F)ccn(Cc2ccc3c(c2)NC(=O)N[C@]3(C#CC2CC2)C(F)(F)F)c1=O [Example 72, (S)-7-((3-amino-2-oxo-4-(trifluoromethyl)pyridin-1(2H)-yl)methyl)-4-(cyclopropylethynyl)-4-(trifluoromethyl)-3,4-dihydroquinazolin-2(1H)-one]	193
CN1C(=O)Nc2cc(Cn3cnccc3=O)ccc2[C@@]1(C#CC1CC1)C(F)(F)F [Example 73, (S)-4-(cyclopropylethynyl)-3-methyl-7-((6-oxopyrimidin-1(6H)-yl)methyl)-4-(trifluoromethyl)-3,4-dihydroquinazolin-2(1H)-one]	275
CCN1C(=O)Nc2cc(Cn3cnccc3=O)ccc2[C@@]1(C#CC1CC1)C(F)(F)F [Example 74, (S)-4-(cyclopropylethynyl)-3-ethyl-7-((6-oxopyrimidin-1(6H)-yl)methyl)-4-(trifluoromethyl)-3,4-dihydroquinazolin-2(1H)-one]	263
Cc1cc2c(cc1Cn1cnccc1=O)NC(=O)N[C@]2(C#CC1CC1)C(F)(F)F [Example 80, (S)-4-(cyclopropylethynyl)-6-methyl-7-((6-oxopyrimidin-1(6H)-yl)methyl)-4-(trifluoromethyl)-3,4-dihydroquinazolin-2(1H)-one]	57
CC(F)(F)c1ncn(Cc2ccc3c(c2)NC(=O)N[C@]3(C#CC2CC2)C(F)(F)F)c(=O)c1N [Example 81, (S)-7-((5-amino-4-(1,1-difluoroethyl)-6-oxopyrimidin-1(6H)-yl)methyl)-4-(cyclopropylethynyl)-4-(trifluoromethyl)-3,4-dihydroquinazolin-2(1H)-one]	166
COc1ccc(=O)n(Cc2cc3c(cc2F)[C@@](C#CC2CC2)(C(C)(F)F)NC(=O)N3)n1 [Example 82, (S)-4-(cyclopropylethynyl)-4-(1,1-difluoroethyl)-6-fluoro-7-((3-methoxy-6-oxopyridazin-1(6H)-yl)methyl)-3,4-dihydroquinazolin-2(1H)-one]	66
COc1cnn(Cc2cc3c(cc2F)[C@@](C#CC2CC2)(C(C)(F)F)NC(=O)N3)c(=O)c1 [Example 83, (S)-4-(cyclopropylethynyl)-4-(1,1-difluoroethyl)-6-fluoro-7-((4-methoxy-6-oxopyridazin-1(6H)-yl)methyl)-3,4-dihydroquinazolin-2(1H)-one]	51
COc1ccn(Cc2cc3c(cc2F)[C@@](C#CC2CC2)(C(C)(F)F)NC(=O)N3)c(=O)c1 [Example 84, (S)-4-(cyclopropylethynyl)-4-(1,1-difluoroethyl)-6-fluoro-7-((4-methoxy-2-oxopyridin-1(2H)-yl)methyl)-3,4-dihydroquinazolin-2(1H)-one]	30
Cc1cn(Cc2cc3c(cc2F)[C@@](C#CC2CC2)(C(C)(F)F)NC(=O)N3)c(=O)c(N)n1 [Example 85, (S)-7-((3-amino-5-methyl-2-oxopyrazin-1(2H)-yl)methyl)-4-(cyclopropylethynyl)-4-(1,1-difluoroethyl)-6-fluoro-3,4-dihydroquinazolin-2(1H)-one]	14
